Measurements taken from patent publication US20080045580A1, “Novel Isoxazole Compounds Having Ppar Agonist Activity” (DR REDDY'S LABORATORIES LIMITED, priority 2004, published 2008).
Values joined by “and” are separate entries in the source; they are usually repeats but may differ in a detail not shown here. Equal entries are not always repeated.

Experiments:
human PPARγ1 = target: T1, human PPARγ1 (Homo sapiens, UniProt P37231); assay: in vitro PPARγ transactivation (GAL4-LBD luciferase reporter in HEK-293 cells); type: cell-based
T1 construct: expressed in transfected cells; host or cells: HEK-293
T1 sequence (P37231 238-503 limits assumed): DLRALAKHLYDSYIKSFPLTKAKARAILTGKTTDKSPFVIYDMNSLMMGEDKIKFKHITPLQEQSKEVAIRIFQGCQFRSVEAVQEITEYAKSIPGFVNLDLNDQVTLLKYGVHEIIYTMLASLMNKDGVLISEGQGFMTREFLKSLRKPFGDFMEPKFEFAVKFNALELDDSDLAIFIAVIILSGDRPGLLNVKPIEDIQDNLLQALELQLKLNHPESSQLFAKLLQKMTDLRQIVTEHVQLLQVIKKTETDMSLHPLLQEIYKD
Source text: The following procedure was used for in vitro determination of PPARα, γ and δ transactivation.
(§1) The ligand binding domain of human PPARγ1, PPARα or PPARδ was fused to the C-terminal end of DNA binding domain of yeast transcription factor GAL4 in eukaryotic expression vector. Using SuperFect (Qiagen), HEK-293 cells were transfected with this plasmid and a reporter plasmid harboring the luciferase gene driven under the control of 5 tandem GLA4 response elements. In some experiments, pAdVantage vector (Promega) was used to enhance luciferase expression. Compounds were added approximately 48 hours after transfection at various concentrations and incubated overnight. The cells were lysed and the luciferase activity was measured using the LucLite kit in Top Count (Packard). Luciferase activity was expressed as fold activation relative to untreated cells in the same experiment.

human PPARα = target: T2, human PPARα (Homo sapiens, UniProt Q07869); assay: in vitro PPARα transactivation (GAL4-LBD luciferase reporter in HEK-293 cells); type: cell-based
T2 construct: expressed in transfected cells; host or cells: HEK-293
T2 sequence (Q07869 239-466 limits assumed): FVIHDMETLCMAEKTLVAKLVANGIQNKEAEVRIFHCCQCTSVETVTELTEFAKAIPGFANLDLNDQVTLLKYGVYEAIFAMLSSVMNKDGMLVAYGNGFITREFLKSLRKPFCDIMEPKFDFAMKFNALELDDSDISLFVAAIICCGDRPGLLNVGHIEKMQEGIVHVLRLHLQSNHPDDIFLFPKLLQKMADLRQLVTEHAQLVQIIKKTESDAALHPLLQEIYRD
Source text: Generally, suitable PPAR agonists are believed to be useful for attenuating and/or treatment of diabetic dyslipidemia, metabolic syndrome, diabetes, cardiovascular disease, and obesity. The following procedure was used for in vitro determination of PPARα, γ and δ transactivation.
as §1

Structure (SMILES)	melting point [°C]	further results
CCOC(=O)C1(Oc2ccc(OCc3cc(-c4ccccc4)no3)cc2)CCCC1 [Example 2]	83 to 85	PPARγ luciferase fold activation relative to untreated cells (human PPARγ1; 1 μM): 1.4; PPARγ luciferase fold activation relative to untreated cells (human PPARγ1; 10 μM): 2.4; PPARγ luciferase fold activation relative to untreated cells (human PPARγ1; 50 μM): 2.4; PPARα luciferase fold activation relative to untreated cells (human PPARα; 1 μM): 1.2; PPARα luciferase fold activation relative to untreated cells (human PPARα; 10 μM): 1.0; PPARα luciferase fold activation relative to untreated cells (human PPARα; 50 μM): 1.0
CCC(C)(Oc1ccc(OCc2cc(-c3ccc(OCc4ccccc4)cc3)no2)cc1)C(=O)O (stereo not drawn) [Example 3]	132 to 134	–
CCC(C)(Oc1ccc(OCc2cc(-c3ccc(O)cc3)no2)cc1)C(=O)O (stereo not drawn) [Example 4]	142 to 144	–
O=C(O)C1(Oc2ccc(OCc3cc(-c4ccccc4)no3)cc2)CCCC1 [Example 9]	135 to 137	PPARγ luciferase fold activation relative to untreated cells (human PPARγ1; 1 μM): 1.2; PPARγ luciferase fold activation relative to untreated cells (human PPARγ1; 10 μM): 0.9; PPARγ luciferase fold activation relative to untreated cells (human PPARγ1; 50 μM): 2.4; PPARα luciferase fold activation relative to untreated cells (human PPARα; 1 μM): 0.8; PPARα luciferase fold activation relative to untreated cells (human PPARα; 10 μM): 1.2; PPARα luciferase fold activation relative to untreated cells (human PPARα; 50 μM): 1.7
CC(C)(Oc1ccc(OCc2cc(-c3ccc(C(F)(F)F)cc3)no2)cc1)C(=O)O [Example 12]	166 to 168	–
Cc1cc(SCc2cc(-c3ccc(C(F)(F)F)cc3)no2)ccc1OC(C)(C)C(=O)O [Example 13]	106 to 108	–
CC(C)(Sc1ccc(OCc2cc(-c3ccc(C(F)(F)F)cc3)no2)cc1)C(=O)O [Example 14]	120 to 122	–
CC[C@@](C)(Oc1ccc(OCCCc2cc(-c3ccccc3)no2)cc1)C(=O)O [Example 15]	105 to 108	–
CC[C@](C)(Oc1ccc(OCCCc2cc(-c3ccccc3)no2)cc1)C(=O)O [Example 16]	121 to 122	–
CC(C)(Oc1ccc(OCc2cc(-c3ccc(-c4ccccc4)cc3)no2)cc1)C(=O)O [Example 18]	168 to 170	–
CCC(C)(Oc1ccc(OCc2cc(-c3ccc(-c4ccccc4)cc3)no2)cc1)C(=O)O (stereo not drawn) [Example 19]	188 to 190	–
CCC(C)(Oc1ccc(OC/C=C/c2cc(-c3ccccc3)no2)cc1)C(=O)O (stereo not drawn) [Example 20]	118 to 120	–
CCC(C)(Oc1ccc(OCCCc2cc(-c3ccc(C(F)(F)F)cc3)no2)cc1)C(=O)O (stereo not drawn) [Example 21]	110 to 112	–
CCC(C)(Oc1ccc(OCc2cc(-c3ccc([N+](=O)[O-])cc3)no2)cc1)C(=O)O (stereo not drawn) [Example 22]	128 to 130	–
CCC(C)(Oc1ccc(OCc2cc(-c3ccc(F)cc3)no2)cc1)C(=O)O (stereo not drawn) [Example 23]	118 to 120	–
CCC(C)(Oc1ccc(OCc2cc(-c3ccc(C)cc3)no2)cc1)C(=O)OC (stereo not drawn) [Example 29, 2-Methyl-2-[4-(3-(4-methylphenyl)isoxazol-5-ylmethoxy)phenoxy]butyric acid, methyl ester]	100 to 102	–
CCC(C)(Oc1ccc(OCc2cc(-c3ccc(C)cc3)no2)cc1)C(=O)O (stereo not drawn) [Example 30, 2-Methyl-2-[4-(3-(4-methylphenyl)isoxazol-5-ylmethoxy)phenoxy]butyric acid]	138 to 140	–
CCC(C)(Oc1ccc(OCCCc2cc(-c3ccc(C)cc3)no2)cc1)C(=O)O (stereo not drawn) [Example 32, 2-Methyl-2-{4-[3-(3-(4-methylphenyl)isoxazol-5-yl)propoxy]phenoxy}butyric acid]	98 to 100	–
CCC(C)(Oc1ccc(OCCCc2cc(-c3ccc(Cl)cc3)no2)cc1)C(=O)O (stereo not drawn) [Example 34, 2-Methyl-2-{4-[3-(3-(4-chlorophenyl)isoxazol-5-yl)propoxy]phenoxy}butyric acid]	130 to 132	–
Cc1cccc(Nc2cc(Cl)nc(SCC(=O)O)n2)c1C [Wyeth 14643, reference compound]	–	PPARα luciferase fold activation relative to untreated cells (human PPARα; 10 μM): 1.7 and 1.6 and 1.4 and 2.5 and 2.7 and 2.4; PPARα luciferase fold activation relative to untreated cells (human PPARα; 50 μM): 3.4 and 5.0 and 4.2 and 5.2 and 4.1 and 6.1 and 4.6 and 4.0
